{"source": "patent US20220370416A1", "about": "“COMPOUNDS AND METHODS FOR TARGETED DEGRADATION OF KRAS” (Arvinas Operations, Inc., priority 2020, published 2022)", "key": {"pErk [1]": {"test_system": "pErk", "details": "NCI-H2030, 24 hour dose response"}, "[2]": {"test": "Erk signaling (pErk, total Erk) by immunoblot in SW1573 cells", "assay_type": "cell-based", "details": "SW1573, 2.5 μM, all time points", "procedure": "(§1) Signaling kinetics were monitored during a 24 hour time course in MIA PaCa2, NCI-H23, and SW1573 cells treated with 2.5 μM LC-2. Modulation of Erk signaling by both MRTX and LC-2 occurs within 6 hours in MIA PaCa-2 and NCI-H23 cells (FIGS. 10A, 10B, and 11). pErk was suppressed by both compounds at 6 and 24 hours in each cell lines. […] Total Erk was increased in LC-2 treated cells compared to DMSO at all time points indicating the initiation of a positive feedback loop upon KRAS^G12C degradation and pErk inhibition.\n(§2) NCI-H2030 (CRL-5914), MIA PaCa-2 (CRL-1420), NCI-H23 (CRL-5800), NCI-H358 (CRL-5807), and HCT-116 (CCL-247) cells were obtained from ATCC, expanded immediately, and frozen down. Vials were thawed and used within 20 passages. SW1573 cells were a gift from Arvinas and were handled in the same manner. NCI-H2030, NCI-H23, and NCI-H358 were cultured in RPMI (ATCC30-2001) supplemented with 10% FBS (Biological Industries; cat. no. S1480) and 1% Penicillin-Streptomycin (ThermoFisher; cat. no. 15140122). HCT-116 cells were maintained in high glucose DMEM (ThermoFisher; cat. no. 11965084) supplemented as above. MIA PaCa-2 cells were cultured in high glucose DMEM supplemented with 10% FBS, 2.5% horse serum (ThermoFisher; cat. no. 26050-088; lot 2109875), and 1% Penicillin-Streptomycin. SW1573 cells were maintained in DMEM/F12 Nutrient Mix with GlutaMAX supplement (ThermoFisher; cat. no. 10565018) with 10% FBS and 1% Penicillin-Streptomycin added. DPBS (ThermoFisher; cat. no. 14190250) was used to wash cells and 0.25% Trypsin-EDTA (ThermoFisher; cat. no. […]) was used to detach cells for passaging. […] The VHL ligand was generously provided by Arvinas. […]\n(§3) Cell lysates were clarified at 21000×g for 15 mins at 4° C. Protein levels were quantified using a 50:1 mixture of bicinchoninic acid solution (Millipore Sigma; cat. no. B9643) and 4% (w/v) copper(II) sulfate solution (Millipore Sigma; cat. no. C2284) incubated at 37° C. for 30 mins. Absorbance values at 560 nm were read on an EnVision 2101 Multilabel Reader (PerkinElmer). […]"}, "pErk [3]": {"test_system": "pErk", "test": "Erk signaling (pErk, total Erk) by immunoblot in SW1573 cells", "assay_type": "cell-based", "details": "SW1573, 2.5 μM", "procedure": "as §1, §2, §3"}}, "data": [{"compound": "C=C(F)C(=O)N1CCN(c2nc(OC[C@@H]3CCCN3CCCOCCC(=O)N[C@H](C(=O)N3C[C@H](O)C[C@H]3C(=O)NCc3ccc(-c4scnc4C)cc3)C(C)(C)C)nc3c2CCN(c2cccc4cccc(Cl)c24)C3)C[C@@H]1CC#N", "note": "[LC-2, (2S,4R)-1-((S)-2-(3-(3-((S)-2-(((7-(8-chloronaphthalen-1-yl)-4-((S)-3-(cyanomethyl)-4-(2-fluoroacryloyl)piperazin-1-yl)-5,6,7,8-tetrahydropyrido[3,4-d]pyrimidin-2-yl)oxy)methyl)pyrrolidin-1-yl)propoxy)propanamido)-3,3-dimethylbutanoyl)-4-hydroxy-N-(4-(4-methylthiazol-5-yl)benzyl)pyrrolidine-2-carboxamide]", "values": [{"measurement": "pErk signaling", "setting": "pErk [1]", "result": "dose-dependent decrease in signaling"}, {"measurement": "total Erk levels", "setting": "pErk [1]", "result": "elevated in a dose-dependent manner"}, {"measurement": "total Erk versus DMSO", "setting": "[2]", "result": "increased"}, {"measurement": "phosphorylated Erk over time", "setting": "pErk [3]; 24 hour time course", "result": "inhibited by 2.5 μM LC-2 between 1 and 4 hours, however pErk levels rebounded between 8 and 24 hours"}, {"measurement": "pErk levels versus DMSO", "setting": "pErk [3]; 24 hours", "result": "significantly lower"}]}]}
